In patent US20080132417A1, “Molecular Basis For The Identification Of Chemotherapy Resistance In Human Tumors And The Treatment Thereof” (THE UAB RESEARCH FOUNDATION, priority 2004, published 2008):
Values after ≈ are worked out from the molar mass of the structure shown.

What was measured:
Assay type in all cases: cell-based, human
[1] = test system: SW948CPTH cells; assay: Cell proliferation assay, cross-resistance of SW948CPTH; conditions: for IC50: Homo sapiens, read-out: mean IC50 dose, SW948CPTH; for cross-resistance of SW948CPTH cells (in words): compared to SW948; for mean IC50 dose, SW948CPTH: SW948CPTH cells, without CPT-11 for >22 days, 24 h drug exposure, counted day 4, mean ± SD; for fold change, SW948CPTH: fold change of IC50 vs SW948 (in brackets)
Description: (§1) Determination of cross-resistance was determined by cell proliferation assay. SW948, SW948CPTH or SW948CPTL cells were plated in 24-well tissue culture plates and allowed to grow for 24 h at which time the drugs were added at various doses ranging from 0-80 μg/ml. Then 24 h later, the culture medium was removed, and the cells were washed once with PBS followed by the addition of drug-free culture medium. Cells were counted on day 4 using a cell counter (Beckman Coulter, Fullerton, Calif.). The data were analyzed with Microsoft Excel (Microsoft Corp., Redmond, Wash.) using an exponential regression model to determine the IC50 dose.

[2] = test system: SW948CPTL cells; assay: Cell proliferation assay, cross-resistance of SW948CPTL; conditions: for IC50: Homo sapiens, read-out: mean IC50 dose, SW948CPTL; for resistance of SW948CPTL cells (in words): compared to SW948; for fold change, SW948CPTL: fold change of IC50 vs SW948 (in brackets); for mean IC50 dose, SW948CPTL: SW948CPTL cells, without CPT-11 for >28 days, 24 h drug exposure, counted day 4, mean ± SD
Description: as §1

[3] = test system: SW948 cells; assay: Cell proliferation assay, sensitivity of SW948 to various drugs; conditions: SW948 parental cells, 24 h drug exposure, cells counted day 4, mean ± SD of 1-4 assays; for IC50: Homo sapiens, read-out: mean IC50 dose, SW948
Description: as §1

Row | SMILES | IC50 [1] [µg/mL] | cross-resistance of SW948CPTH cells (in words) [1] | IC50 [2] [µg/mL] | resistance of SW948CPTL cells (in words) [2] | fold change, SW948CPTL [2] | IC50 [3] [µg/mL] | mean IC50 dose, SW948CPTH [1] [µg/mL] | fold change, SW948CPTH [1] | mean IC50 dose, SW948 [3] [µg/mL] | mean IC50 dose, SW948CPTL [2] [µg/mL]
1 | Nc1ccn([C@@H]2O[C@H](CO)[C@@H](O)C2(F)F)c(=O)n1 [Gemcitabine, gemcitabine] | 0.008 ± 0.004 (≈ 0.0304 µM) | No resistant | 0.016 (≈ 0.0608 µM) | showed resistance | 1.8 | 0.009 ± 0.004 (≈ 0.0342 µM) |  |  |  | 
2 | O=c1[nH]cc(F)c(=O)[nH]1 [5-FU, 5-fluorouracil] | 0.54 ± 0.2 (≈ 4.15 µM) | No resistant | 0.75 ± 0.02 (≈ 5.77 µM) | no resistance |  | 0.61 ± 0.1 (≈ 4.69 µM) |  |  |  | 
3 | CC1(C)CCC2=C(O1)c1ccccc1C(=O)C2=O [Lapachone] | 0.84 ± 0.21 (≈ 3.47 µM) | not cross-resistant |  |  |  | 1.06 ± 0.16 (≈ 4.38 µM) |  |  |  | 
4 | COc1cccc2c1C(=O)c1c(O)c3c(c(O)c1C2=O)C[C@@](O)(C(=O)CO)C[C@@H]3O[C@H]1C[C@H](N)[C@H](O)[C@H](C)O1 [Doxorubicin, doxorubicin] | 0.048 ± 0.008 (≈ 0.0883 µM) | No resistant |  |  |  | 0.037 ± 0.008 (≈ 0.0681 µM) |  |  |  | 
5 | CC[C@@]1(O)C(=O)OCc2c1cc1n(c2=O)Cc2cc3cc(O)ccc3nc2-1 [10-OH-CPT] |  | cross-resistant |  |  |  |  | 1.7 ± 0.3 | 7 | 0.25 ± 0.16 | 
6 | CCc1c2c(nc3ccc(OC(=O)N4CCC(N5CCCCC5)CC4)cc13)-c1cc3c(c(=O)n1C2)COC(=O)[C@]3(O)CC [CPT-11] |  | cross-resistant |  | showed resistance |  |  | 38 ± 6.9 |  | 3.0 ± 0.3 | 
7 | CC[C@@]1(O)C(=O)OCc2c1cc1n(c2=O)Cc2cc3ccccc3nc2-1 [CPT, camptothecin] | 0.32 ± 0.02 (≈ 0.919 µM) | cross-resistant | 0.14 (≈ 0.402 µM) | showed resistance | 2.4 | 0.057 ± 0.02 (≈ 0.164 µM) |  | 6 |  | 
8 | COc1cc([C@@H]2c3cc4c(cc3[C@@H](O[C@@H]3O[C@@H]5CO[C@@H](C)O[C@H]5[C@H](O)[C@H]3O)[C@H]3COC(=O)[C@H]23)OCO4)cc(OC)c1O [Etoposide, etoposide] | 0.7 ± 0.2 (≈ 1.19 µM) | not cross-resistant | 1.6 ± 0.2 (≈ 2.72 µM) | showed resistance | 2 | 0.8 ± 0.1 (≈ 1.36 µM) |  |  |  | 
9 | N.N.[Cl][Pt][Cl] [Cisplatin, cisplatin] |  | No resistant |  | showed resistance | 1.7 |  | 1.5 ± 0.15 |  | 1.3 ± 0.34 | 2.2 ± 1.3
10 | CCc1c2c(nc3ccc(O)cc13)-c1cc3c(c(=O)n1C2)COC(=O)[C@]3(O)CC [SN38] |  | cross-resistant |  | showed resistance | 9 |  | 1.5 ± 0.13 | 8 | 0.19 ± 0.01 | 1.7 ± 0.15
